# According to publication PMC11986975, “A Cdk5 inhibitor restores cognitive function and alleviates type 2 diabetes in mice” (iScience, 2025):
# Assays:
# HFD-fed mice [1] = assay: Glucose tolerance test (GTT) in HFD mice; assay type: in vivo; settings: i.p., both dosages 20 and 40 mg/kg/day, 20 days
# Method: For the glucose tolerance test, 2 g/kg of glucose was utilized, and 0.75U/kg of human insulin was employed The glucose tolerance test (GTT) and insulin tolerance test (ITT) were performed in HFD mice models after 20 weeks of HFD feeding followed by 20 days of drug administration.[48] For GTT the mice were kept in a fasting period for overnight before glucose injections of 2 g/kg intraperitoneally. For ITT the mice were kept in a fasting for 6 h prior to insulin injection of 0.75 U/kg intraperitoneally. A one-touch glucometer was used to assess the blood sugar levels at various intervals (0, 60, and 120 min) following intraperitoneal infusion of both glucose and insulin.[23]^,[49]^,[50]^,[51] After 20 weeks of a HFD and 20 days of drug administration, the tests were carried out.
# Cdk2/CylA2 = assay: Specificity kinase assay, Cdk2 with cyclin A2; assay type: biochemical; settings: inhibitor 0-100 nM
# Source text: To assess the specificity of inhibitors BLINK11 and BLINK15 against CDK5, we investigated their effects on different Cdks, i.e., Cdk1, Cdk2, and Cdk9 that share structural homology with CDK5. […] However, these IC50 values were higher than those observed for CDK5/p35 and CDK5/p25. […] Overall, BLINK11 and BLINK15 can selectively target CDK5 at lower concentrations. […]
# IC50 of all the kinases for both BLINK11 and BLINK15 inhibitors.
# [2] = LC-MS of brain lysate and serum after intraperitoneal injection in HFD mouse model; assay type: in vivo; settings: C57BL/6J, ip, HFD mice, LC-MS peak area in brain lysate compared to serum
# Method: To assess the BBB penetrability of BLINK11 and BLINK15 in the high-fat diet (HFD) mouse model, intraperitoneal injections were administered, and liquid chromatography-mass spectrometry (LC-MS) analysis was conducted on both brain lysate and serum samples (Figure 3). The LC-MS results depicted in Figures 3A and 3B showcase the peaks corresponding to the BLINK11 compound in the brain lysate and serum, respectively. Similarly, Figures 3C and 3D illustrate the peaks associated with the BLINK15 compound in the brain lysate and serum, respectively. […] These analyses provide a quantitative measure of the presence of the compounds in the respective samples. Furthermore, to ascertain the relative distribution of BLINK11 and BLINK15 in the brain compared to serum, the percentages of each compound present in the brain were calculated and plotted in a bar graph (Figure 3G). […]
# Metabolites, comprising the entire spectrum within the lysate excluding proteins but inclusive of drugs, were extracted from plasma and brain tissue homogenate samples. […] Compounds were analyzed in these samples using a multiple reaction monitoring method (using parameters mentioned in Table S5) on a triple quadrupole hybrid ion trap mass spectrometer (QTRAP 6500+, SCIEX) coupled with an ExionLC UHPLC system (SCIEX). […] Relative quantification was performed using MultiQuantTM software v.3.0 (SCIEX). […]
# HFD-fed mice [3] = assay: Body weight in HFD-fed T2D mice; assay type: in vivo; settings: i.p.
# Method: The HFD-fed mice model received intraperitoneal injections of the compounds BLINK11 and BLINK15 at doses of 20 mg/kg/day and 40 mg/kg/day for a total of 20 days in the third month of HFD feeding. The body weight was measured at the beginning of the drug therapy, on day 0, and then again on days 10 and 20, as indicated in Figure 4A.
# Two groups of four-week-old male C57BL/6J mice were established. One group (n = 8) was fed a standard laboratory mouse chow diet (Protein: 20% kcal, Carbohydrate: 70% kcal, Fat: 10% kcal), while the other group (n = 40) was placed on a HFD (Protein: 20% kcal, Carbohydrate: 20% kcal, Fat: 60% kcal).[23] Body weight, ITT, and GTT were assessed. Mice were treated with BLINK11 and BLINK15 inhibitors at 20 mg/kg and 40 mg/kg doses for 20 days. The study included six groups: Control, HFD, HFD_BLINK11_20, HFD_BLINK11_40, HFD_BLINK15_20, and HFD_BLINK15_40. […] The control used in the study are vehicle treated-control group (5% DMSO, 0.1% tween 20 and 1X PBS). The doses of 20 mg/kg and 40 mg/kg body weight were selected based on evidence from previous studies evaluating the efficacy and safety of similar kinase inhibitors.[45]^,[46]^,[47] […] The 40 mg/kg dose was selected to assess dose-dependent efficacy and represents the upper limit of tolerability based on pharmacokinetic and toxicity data.
Structure (SMILES),Glucose tolerance test (GTT) (HFD-fed mice [1]),Inhibition of Cdk2 (with cyclin A2) (Cdk2/CylA2),Kp [2],"Body weight gain caused by HFD (HFD-fed mice [3]; 40 mg/kg/day, 20 days (only the higher dose))","Body weight gain caused by HFD (HFD-fed mice [3]; both dosages 20 and 40 mg/kg/day, 20 days)"
COc1ccc(C(=O)C[C@@]2(O)C(=O)N(Cc3ccccc3)c3ccc(Br)cc32)cc1[N+](=O)[O-] [BLINK15],significant rescue,minimal inhibition,0.11,significant recovery,
"O=C(COc1ccccc1C(=O)Nc1cccc(Cl)c1Cl)Nc1ccc(N2CCOCC2)c(Cl)c1 [BLINK11, 2-(2-((3-chloro-4-morpholinophenyl)amino)-2-oxoethoxy)-N-(2,3-dichlorophenyl)benzamide]",significant rescue,minimal inhibition,0.38,,rescued from the gain in body weight
